Test results as given in US20020034421A1, “Remediation of contaminates including low bioavailability hydrocarbons” (priority 2000, published 2002).
Converted amounts (≈) assume the structure as drawn. “And” between values parts separate entries of the source, which are not always exact repeats. Identical values can stand only once.

How the values were obtained:
[1] = Logarithm of the octanol: water partition coefficient; cited from earlier work
[2] = Crystal solubility at 25° C.; cited from earlier work
[3] = at 20° C.; cited from earlier work
[4] = Fenton reaction degradation of PAHs in Quakertown silt loam; settings: for % reduced / degraded by Fenton reaction: ratio 10:1 ([H2O2:FeSO4]=[2.0 g:0.2 g]), 24-h oxidation, model soil
[5] = Hydrogen peroxide oxidation of PAHs at near neutral pH (modified Fenton's reagent) in Quakertown silt loam
[6] = Fenton reaction degradation of PAHs in MGP soil; settings: FR: Fenton's reagent treatment for 24 hours
From the text: Coal tar-contaminated soil was collected from a former manufactured gas plant site in New Jersey. The soil was classified as loamy sand, consisting of 78% sand, 11% silt, and 11% clay.
Fenton's reagent was generated by mixing hydrogen peroxide (30%, w/v) with FeSO4.7H2O in varying ratios to determine the optimum conditions for the degradation of PAHs. The sequence of reagent addition seemed to be important to ensure that the reaction occurred efficiently, as well as to ensure that the reaction could be safely maintained. Desired amounts of ferrous sulfate were added to 10 g of PAHs-spiked soil or 5 g of MGP soil in 20 mL of distilled water containing 0.02% HgCl2. To the soil slurry, hydrogen peroxide was introduced gradually by pipetting (ca. 0.3 g each with 10-min intervals), and the reaction was allowed to occur for 24 h on an orbital platform shaker at room temperature.
The soil slurry used for either biodegradation or Fenton-type reaction, or both, was transferred to a 50-mL Teflon centrifuge tube and centrifuged at 18,600× g for 15 min. After removing the supernatant, 10 mL each of dichloromethane and acetone were added to the soil and the soil-solvent suspension was shaken (200 rpm) for 48 h at 30° C. for the extraction of PAHs. The tube was then centrifuged at 18,600× g for 15 min and the solvent mixture was transferred to a 50-mL test tube. After removing excess water (upper layer; ca. 2 mL) by pipetting, 4 g of anhydrous sodium sulfate were mixed with the PAHs-containing solvent to remove residual water completely from solvent. […] The extract was then concentrated to 1 to 2 mL using an evaporator (Büchi Rotavapor; Buchler Instruments Inc., Fort Lee, N.J.) for further analysis.
The extract was passed through a 0.45-μm PTFE syringe filter to remove any particulates present and analyzed by a gas chromatograph (GC) equipped with a flame ionization detector (Varian Star 3500; Varian Chromatograph Systems, Walnut, Calif.). The GC was installed with a Rtx-5 silica column crossbonded with 5% diphenyl and 95% dimethylpolysiloxane (30 m×0.53 mm inner diameter; Restek Corporation, Bellefonte, Pa.). The oven temperature was programmed at 40° C. for 6 min, followed by a linear increase of 10° C. per minute to 300° C., and then the temperature was held for 15 min. Injector and detector temperatures were maintained at 300° C. Two microliters of the extract were injected and nitrogen was used as a carrier gas.

[7] = Hydrogen Peroxide (2g), 100 mg Ferrous Sulfate, Quakertown silt loam
[8] = Hydrogen Peroxide (2g), 200 mg Ferrous Sulfate, Data from TABLE 3
[9] = Hydrogen Peroxide (2g), No FeSO4, Quakertown silt loam
[10] = ratio 5:1, [H2O2:FeSO4] = [1.0 g:0.2 g], 24 h, Quakertown silt loam
[11] = ratio 10:1 (footnote d), [H2O2:FeSO4] = [0.2 g:0.2 g] [sic], 24 h, Quakertown silt loam
[12] = ratio 10:1 (footnote e), [H2O2:FeSO4] = [1.0 g:0.1 g], 24 h, Quakertown silt loam
[13] = ratio head 1.1, [H2O2:FeSO4] = [0.2 g:0.2 g], 24 h, Quakertown silt loam
[14] = mFR + gallic acid, pH ca. 6.0-6.5

| SMILES | Log Kow [1] | Solubility in water [2] | Vapor Pressure [3] | % remaining in soil [4, 7] | % remaining in soil [4, 8] | % remaining in soil [4, 9] | % remaining in soil [4, 10] | % reduced / degraded by Fenton reaction [4] | % remaining in soil [4, 11] | % remaining in soil [4, 12] | % remaining in soil [4, 13] | % remaining in soil ([5]; FR + CaCO3, pH ca. 6.0-6.5) | % remaining in soil ([5]; mFR + catechol, pH ca. 6.0-6.5) | % remaining in soil [5, 14] | % remaining in soil [6] |
| --- | --- | --- | --- | --- | --- | --- | --- | --- | --- | --- | --- | --- | --- | --- | --- |
| c1ccc2cc3ccccc3cc2c1 [Anthracene, anthracene] | 4.45 | 0.07 µg/mL (≈ 0.393 µM) | 1.9 × 10^−4 | 76.3b % | 61.9c % | 92.7a % | 75.9b % | about 40% | 61.9c % | 79.3b % | 100a % | 78.1a % | 70.8ab % | 66.8b % |  |
| c1ccc2ccccc2c1 [Naphthalene, naphthalene] |  | 32 µg/mL (≈ 250 µM) | 4.9 × 10^−2 |  |  |  |  |  |  |  |  |  |  |  |  |
| c1cc2ccc3cccc4ccc(c1)c2c34 [Pyrene, pyrene] | 5.32 |  | 6.8 × 10^−7 | 16.3b % | 15.5c % | 88.3a % | 51.0b % |  | 15.5c % | 26.3d % | 95.4a % | 77.1a % | 58.3b % | 58.9b % | 53.4a % |
| c1ccc2c(c1)ccc1c3ccccc3ccc21 [Chrysene, chrysene] | 5.61 | 0.006 µg/mL (≈ 0.0263 µM) | 6.3 × 10^−7 | 72.6a % | 88.1b % | 77.0ab % | 87.0b % | ~12% | 88.1b % | 98.2c % | 100a % | 100a % | 100a % | 91.1b % | 50.8b % |
| c1ccc2c(c1)Cc1ccccc1-2 [Fluorene, fluorene] | 4.18 |  | 1.3 × 10^−2 |  |  |  |  |  |  |  |  |  |  |  | 10.3a % |
| c1ccc2c(c1)cc1ccc3cccc4ccc2c1c34 [Benzo(a)pyrene, benzo(a)pyrene] |  |  |  | 10.5b % | 3.3c % | 73.2a % | 35.3b % |  | 3.3% and 3.3c % | 60.9d % | 84.8a % | 73.1a % | 54.8b % | 49.6b % |  |
| c1ccc2c(c1)ccc1ccccc12 [Phenanthrene, phenanthrene] | 4.46 | 1.0 µg/mL (≈ 5.61 µM) | 6.8 × 10^−4 |  |  |  |  |  |  |  |  |  |  |  | 16.8a % |
